Measured values: patent US20120129872A1, “FUSED HETEROARYL INHIBITORS OF PRO-MATRIX METALLOPROTEINASE ACTIVATION” (priority 2010, published 2012)
Where a name gives a salt, the structure may show the parent alone.

Columns and labels:
[1] = biological target: T1, proMMP13(1-268) (SEQ ID NO:7) (Homo sapiens, UniProt P45452); test: ThermoFluor binding assay with proMMP13(1-268)
T1 construct: 6×-histidine tag (C); made in house; host or cells: HEK293 (transient, secreted)
Description: (§1) The ThermoFluor® (TF) assay is a 384-well plate-based binding assay that measures thermal stability of proteins (Biomol Screen 2001, 6, 429-40; Biochemistry 2005, 44, 5258-66). The experiments were carried out using instruments available from Johnson & Johnson Pharmaceutical Research & Development, LLC. TF dye used in all experiments was […] (1,8-ANS) (Invitrogen: A-47).
(§2) Compounds were arranged in a pre-dispensed plate (Greiner Bio-one: 781280), wherein compounds were serially diluted in 100% DMSO across 11 columns within a series. Columns 12 and 24 were used as DMSO reference and contained no compound. For multiple compound concentration-response experiments, the compound aliquots ([…]) were robotically predispensed directly into black 384-well polypropylene PCR microplates (Abgene: TF-0384/k) using a Cartesian Hummingbird liquid handler (DigiLab, Holliston, Mass.). Following compound dispense, protein and dye solutions were added to achieve the final assay volume of 3 μL. The assay solutions were overlayed with 1 μL of silicone oil (Fluka, type DC 200: 85411) to prevent evaporation.
(§3) Assay plates were robotically loaded onto a thermostatically controlled PCR-type thermal block and then heated from 40 to 90° C. at a ramp-rate of 1° C./min for all experiments. Fluorescence was measured by continuous illumination with UV light (Hamamatsu LC6) supplied via fiber optics and filtered through a band-pass filter (380-400 nm; >60D cutoff). Fluorescence emission of the entire 384-well plate was detected by measuring light intensity using a CCD camera (Sensys, Roper Scientific) filtered to detect 500±25 nm, resulting in simultaneous and independent readings of all 384 wells. A single image with 20-sec exposure time was collected at each temperature, and the sum of the pixel intensity in a given area of the assay plate was recorded vs temperature and fit to standard equations to yield the Tm (J Biomol Screen 2001, 6, 429-40).
(§4) Thermodynamic parameters necessary for fitting compound binding for each proMMP were estimated by differential scanning calorimetry (DSC) and from ThermoFluor® data. The heat capacity of unfolding for each protein was estimated from the molecular weight and from ThermoFluor® dosing data.
ThermoFluor® with proMMP13(1-268) (SEQ ID NO: 7)
The proMMP13(1-268) (SEQ ID NO:7) protein sample preparations included a desalting buffer exchange step via a PD-10 gravity column (GE Healthcare). The desalting buffer exchange was performed prior to diluting the protein to the final assay concentration of 3.5 μM. The concentration of proMMP13(1-268) (SEQ ID NO:7) was estimated spectrophotometrically based on a calculated extinction coefficient of ε280=37000 M^−1 cm^−1, a calculated molecular weight of 30.8 kDa, and calculated pI of 5.33. ThermoFluor® reference conditions were defined as follows: 100 μg/mL proMMP13(1-268) (SEQ ID NO:7), 25 μM 1,8-ANS, pH 7.0 Buffer (50 mM HEPES pH 7.0, 100 mM NaCl, 0.001% Tween-20, 2.5 mM MgCl2, 300 μM CaCl2). The thermodynamic parameters for proMMP13(1-268) (SEQ ID NO:7) are as follows: Tm (° C.)=67 (+/−0.1), ΔUH(Tm) (cal mol^−1)=107000(+/−5000), ΔUS(Tm) (cal mol^−1 K^−1)=318, ΔUCp (cal mol^−1 K^−1)=2600.

[2] = biological target: T2, proMMP9(67-444;ΔFnII) (SEQ ID NO:5) (Homo sapiens, UniProt P14780, DEL216-390); test: ThermoFluor binding assay with proMMP9(67-444;ΔFnII)
T2 construct: start methionine (N); made in house; host or cells: E. coli BL21(DE3) RIL
T2 sequence (P14780 with tags, fused parts or gaps DEL216-390): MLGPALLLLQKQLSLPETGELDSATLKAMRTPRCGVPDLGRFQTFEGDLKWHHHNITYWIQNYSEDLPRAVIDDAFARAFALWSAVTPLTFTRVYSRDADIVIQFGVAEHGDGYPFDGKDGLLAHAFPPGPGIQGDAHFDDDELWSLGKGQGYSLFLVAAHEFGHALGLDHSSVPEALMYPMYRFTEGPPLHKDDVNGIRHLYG
Description: as §1, §2, §3, §4
ThermoFluor® with proMMP9(67-444;ΔFnII (SEQ ID NO:5)
The protein sample preparations had to include a desalting buffer exchange step via a PD-10 gravity column (GE Healthcare). The desalting buffer exchange was performed prior to diluting the protein to the final assay concentration of 3.5 μM proMMP9(67-444;ΔFnII) (SEQ ID NO:5). The concentration of proMMP9(67-444;ΔFnII) (SEQ ID NO:5) was determined spectrophotometrically based on a calculated extinction coefficient of ε280=33900 M^−1 cm^−1, a calculated molecular weight of 22.6 kDa, and calculated pI of 5.20. ThermoFluor® reference conditions were defined as follows: 80 μg/mL (3.5 μM) proMMP9(67-444;ΔFnII) (SEQ ID NO:5), 50 μM 1,8-ANS, pH 7.0 Buffer (50 mM HEPES pH 7.0, 100 mM NaCl, 0.001% Tween-20, 2.5 mM MgCl2, 300 μM CaCl2). The thermodynamic parameters for proMMP9(67-444;ΔFnII) (SEQ ID NO:5) are as follows: Tm (° C.)=63 (+/−0.1), ΔUH(Tm) (cal mol^−1)=105000(+/−5000), ΔUS(Tm) (cal mol^−1 K^−1)=450, ΔuCp (cal mol^−1 K^−1)=2000.

[3] = biological target: T3, full-length proMMP9(1-707) (SEQ ID NO:1), activation by catalytic MMP3 (Homo sapiens, UniProt P14780, R574P); test: proMMP9/MMP3 P126 Activation Assay; format: biochemical
T3 construct: made in house; host or cells: HEK293 (transient, secreted)
Description: proMMP9/MMP3 P126 Activation Assay
The reaction volume was 50 μL. […] Reactivity of residual MMP3 towards P-126 substrate was minimal under these conditions.

[4] = biological target: T4, proMMP9(20-445;ΔFnII) (SEQ ID NO:6) (Homo sapiens, UniProt P14780, DEL216-390); test: ThermoFluor binding assay with proMMP9(20-445;ΔFnII)
T4 construct: start methionine (N); made in house; host or cells: E. coli BL21(DE3) RIL
T4 sequence (P14780 with tags, fused parts or gaps DEL216-390): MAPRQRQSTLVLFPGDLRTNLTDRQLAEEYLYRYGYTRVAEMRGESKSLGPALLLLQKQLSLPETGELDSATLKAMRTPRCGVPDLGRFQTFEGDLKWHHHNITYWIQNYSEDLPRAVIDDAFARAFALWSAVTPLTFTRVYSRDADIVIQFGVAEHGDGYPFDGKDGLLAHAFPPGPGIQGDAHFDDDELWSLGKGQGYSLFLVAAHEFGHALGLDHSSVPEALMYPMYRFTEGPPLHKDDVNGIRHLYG
Description: as §1, §2, §3, §4
ThermoFluor® with proMMP9(20-445;ΔFnII (SEQ ID NO:6)
The protein sample preparations included a desalting buffer exchange step via a PD-10 gravity column (GE Healthcare). The desalting buffer exchange was performed prior to diluting the protein to the final assay concentration of 2.8 μM proMMP9(20-445;ΔFnII) (SEQ ID NO:6). The concentration of proMMP9(20-445;ΔFnII) (SEQ ID NO:6) was determined spectrophotometrically based on a calculated extinction coefficient of ε280=39880 M^−1 cm^−1, a calculated molecular weight of 28.2 kDa, and calculated pI of 5.5. ThermoFluor® reference conditions were define as follows: 80 μg/mL (2.8 μM) proMMP9(20-445;ΔFnII) (SEQ ID NO:6), 50 μM 1,8-ANS, pH 7.0 Buffer (50 mM HEPES pH 7.0, 100 mM NaCl, 0.001% Tween-20, 2.5 mM MgCl2, 300 μM CaCl2). The thermodynamic parameters for proMMP9(20-445;ΔFnII) (SEQ ID NO:6) are as follows: Tm (° C.)=72 (+/−0.1), ΔUH(Tm) (cal mol^−1)=160000(+/−5000), ΔUS(Tm) (cal mol^−1 K^−1)=434, ΔUCp (cal mol^−1 K^−1)=2400.

T3 sequence (P14780 20-707 R574P): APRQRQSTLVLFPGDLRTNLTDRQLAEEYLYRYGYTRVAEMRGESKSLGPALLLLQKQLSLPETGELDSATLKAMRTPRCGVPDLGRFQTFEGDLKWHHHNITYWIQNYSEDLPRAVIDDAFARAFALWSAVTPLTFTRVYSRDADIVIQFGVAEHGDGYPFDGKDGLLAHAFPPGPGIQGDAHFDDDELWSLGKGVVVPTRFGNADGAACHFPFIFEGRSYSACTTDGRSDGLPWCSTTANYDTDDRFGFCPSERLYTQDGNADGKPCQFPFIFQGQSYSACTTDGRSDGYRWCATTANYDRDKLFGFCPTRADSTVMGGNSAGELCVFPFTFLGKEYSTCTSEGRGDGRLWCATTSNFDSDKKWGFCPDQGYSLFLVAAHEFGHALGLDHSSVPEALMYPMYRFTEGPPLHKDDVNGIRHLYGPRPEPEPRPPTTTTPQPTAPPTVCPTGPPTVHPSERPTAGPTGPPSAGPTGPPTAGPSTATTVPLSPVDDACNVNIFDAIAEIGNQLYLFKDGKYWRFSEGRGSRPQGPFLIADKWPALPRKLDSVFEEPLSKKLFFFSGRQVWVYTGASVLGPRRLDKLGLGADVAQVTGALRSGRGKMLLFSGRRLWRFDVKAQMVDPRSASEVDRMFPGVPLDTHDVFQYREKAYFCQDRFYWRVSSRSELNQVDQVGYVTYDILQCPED

Compound	Kd [1] [nM]	Kd [2] [nM]	IC50 [3] [nM]	Kd [4] [nM]
Cc1c(-c2csc(Nc3cc(C(N)=O)ccc3OC(C)C)n2)sc2ccccc12 [Example 3, 4-Isopropoxy-3-[4-(3-methyl-benzo[b]thiophen-2-yl)-thiazol-2-ylamino]-benzamide•HBr]	1900	750	2500	1200
CC(C)Oc1ccc(C(N)=O)cc1Nc1nc(-c2nc3ccccc3n2C)cs1 [Example 4, 4-Isopropoxy-3-[4-(1-methyl-1H-benzoimidazol-2-yl)-thiazol-2-ylamino]-benzamide•TFA]	13000	9800	~7000	16000
CCOc1ccc(S(N)(=O)=O)cc1Nc1nc(-n2c(C)nc3ccccc32)cs1 [Example 5, 4-Ethoxy-3-[4-(2-methyl-benzoimidazol-1-yl)-thiazol-2-ylamino]-benzenesulfonamide]	4800	16000	13800	9700
CCn1c(C)nc2cc(-c3csc(Nc4cc(S(N)(=O)=O)ccc4OC(C)C)n3)ccc21 [Example 17, 3-[4-(1-Ethyl-2-methyl-1H-benzoimidazol-5-yl)-thiazol-2-ylamino]-4-isopropoxy-benzenesulfonamide•HCl]		850	300	212
Cc1nc2cc(-c3csc(Nc4cc(S(N)(=O)=O)ccc4OC(C)C)n3)ccc2[nH]1 [Example 18, 4-Isopropoxy-3-[4-(2-methyl-1H-benzoimidazol-5-yl)-thiazol-2-ylamino]-benzenesulfonamide•TFA]		440	360	140
CCCn1cnc2ccc(-c3csc(Nc4cc(S(N)(=O)=O)ccc4OC(C)C)n3)cc21 [Example 19, 4-Isopropoxy-3-[4-(3-propyl-3H-benzoimidazol-5-yl)-thiazol-2-ylamino]-benzenesulfonamide•TFA]		830	460	170
CC(C)Oc1ccc(S(N)(=O)=O)cc1Nc1nc(-c2ccc3sccc3c2)cs1 [Example 20, 3-(4-Benzo[b]thiophen-5-yl-thiazol-2-ylamino)-4-isopropoxy-benzenesulfonamide•TFA]		1200	3600	450
CC(C)Oc1ccc(S(N)(=O)=O)cc1Nc1nc(-c2ccc3[nH]cnc3c2)cs1 [Example 21, 3-[4-(1H-Benzoimidazol-5-yl)-thiazol-2-ylamino]-4-isopropoxy-benzenesulfonamide•TFA]		1400	320	91
Cc1nc2ccc(-c3csc(Nc4cc(S(N)(=O)=O)ccc4OC(C)C)n3)cc2n1C [Example 22, 3-[4-(2,3-Dimethyl-3H-benzoimidazol-5-yl)-thiazol-2-ylamino]-4-isopropoxy-benzenesulfonamide•TFA]		480	240	170
Cc1nc2cc(-c3csc(Nc4cc(S(N)(=O)=O)ccc4OC(C)C)n3)ccc2n1C [Example 23, 3-[4-(1,2-Dimethyl-1H-benzoimidazol-5-yl)-thiazol-2-ylamino]-4-isopropoxy-benzenesulfonamide•TFA]		1100	180	360
CC(C)Oc1ccc(S(N)(=O)=O)cc1Nc1nc(-c2ccc3occc3c2)cs1 [Example 24, 3-(4-Benzofuran-5-yl-thiazol-2-ylamino)-4-isopropoxy-benzenesulfonamide•TFA]		670	3400	240
CCn1cnc2cc(-c3csc(Nc4cc(S(N)(=O)=O)ccc4OC(C)C)n3)ccc21 [Example 25, 3-[4-(1-Ethyl-1H-benzoimidazol-5-yl)-thiazol-2-ylamino]-4-isopropoxy-benzenesulfonamide•TFA]		1600	240	780
CCCn1cnc2cc(-c3csc(Nc4cc(S(N)(=O)=O)ccc4OC(C)C)n3)ccc21 [Example 26]		1000	470	210
CCn1cnc2ccc(-c3csc(Nc4cc(S(N)(=O)=O)ccc4OC(C)C)n3)cc21 [Example 27, 3-[4-(3-Ethyl-3H-benzoimidazol-5-yl)-thiazol-2-ylamino]-4-isopropoxy-benzenesulfonamide•TFA]		470	250	120
CC(C)Oc1ccc(S(N)(=O)=O)cc1Nc1nc(-c2ccc3c(c2)nc(CO)n3C)cs1 [Example 29]		660	150	100
